This assay addresses T1, USP7 (Homo sapiens, UniProt Q93009, C315A).
T1 construct: 0.25 nM His-His-USP7 (aa208-560, |C315A|) was incubated with compound; His-His (N)
Kind of assay: Inhibition of USP7 by Fluorescence Intensity (FLINT) readings, Ubiquitin-Rhodamine-110 substrate. The assay is classed as biochemical. Conditions: 0.25 nM His-His-USP7 (aa208-560), 60 minutes at 30° C. preincubation; Ki determined from IC50 according to Cer et al. The protocol: USP7 activity was measured using Rhodamine-110 c-terminal labelled Ubiquitin as a substrate (UbiQ Bio), Incubation with USP7 results in the release of Rhodamine-110 leading to an increase in fluorescence which can be used in the continuous measurement of USP7 activity.
The USP7 reactions were performed in a 50 μL volume, in 384 well black solid low binding plates (Corning #3575). The reaction buffer consisted of 100 mM Bicine pH 8.0, 0.01% TritonX 100, 1 mM TCEP, and 10% DMSO.
0.25 nM His-His-USP7 (aa208-560, |C315A|) was incubated with compound (final concentration 10% DMSO) for 60 minutes at 30° C. The reaction was then initiated by the addition of 50) nM Ubiquitin-Rhodamine-110 substrate or 4 μM Ubiquitin-Rhodamine-110 substrate and the plate read every 3 minutes for 21 minutes to measure the release of Rhodamine-110. Fluorescence Intensity (FLINT) readings were measured using a Biomek Neo plate reader (Ex.485 nm, Em.535 nm).
The inhibition of increasing doses of compound was expressed as a percentage reduction in kinetic rate compared to the kinetic rates established between ‘DMSO only’ and ‘total inhibition’ controls (no USP7). The inhibitory concentrations that gave a 50% reduction in kinetic rate (IC50) were determined, from 11-point dose response curves, in XL-Fit using a 4-Parameter Logistic Model 205 (Sigmoidal Dose-Response Model). The K, values were determined from the IC50 values according to Cer et al. Nucleic Acids Res. 2009, July 1; 37 (WebServer issue): W441-W445.

By Ki is commonly meant the dissociation constant of the complex between target and ligand, obtained from inhibition or displacement.

Where a name gives a salt, the structure may show the parent alone.

T1 sequence (Q93009 208-560 C315A): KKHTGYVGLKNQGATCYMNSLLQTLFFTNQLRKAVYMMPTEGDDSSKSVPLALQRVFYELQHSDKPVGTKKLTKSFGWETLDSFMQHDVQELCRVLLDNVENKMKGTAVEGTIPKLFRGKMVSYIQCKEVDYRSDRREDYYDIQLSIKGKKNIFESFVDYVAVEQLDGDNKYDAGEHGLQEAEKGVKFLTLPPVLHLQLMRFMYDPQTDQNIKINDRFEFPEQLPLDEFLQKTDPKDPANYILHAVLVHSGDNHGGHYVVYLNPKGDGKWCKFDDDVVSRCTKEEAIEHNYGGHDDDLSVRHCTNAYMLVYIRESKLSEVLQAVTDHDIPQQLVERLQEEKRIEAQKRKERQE

For the molecule `COc1cc(Oc2ncn(CC3(O)CCN(C(=O)[C@@H]4CCNC[C@H]4c4ccccc4)CC3)c(=O)c2N)ccc1F` [Example 17, 5-amino-6-(4-fluoro-3-methoxy-phenoxy)-3-[[4-hydroxy-1-(3R,4R)-3-phenylpiperidine-4-carbonyl]-4-piperidyl]methyl]pyrimidin-4-one hydrochloride], the Ki came out at 0.116 µM. In the case of `Nc1c(Oc2ccc(F)cc2)ncn(C[C@@]2(O)CCN(C(=O)[C@@H]3CCN(C(=O)C4CC(c5ccccc5)C4)C[C@H]3c3ccccc3)CC2(F)F)c1=O` (single isomer, unassigned) [Example 71] it was 0.112 µM; in that of `CC(C)(C)OC(=O)N1CC[C@@H](C(=O)N2CCC(O)(Cn3cnc(Oc4ccc(Cl)c(F)c4)c(N)c3=O)CC2)[C@H](c2ccccc2)C1` [Example 3, tert-butyl (3R,4R)-4-[4-[[5-amino-4-(4-chloro-3-fluoro-phenoxy)-6-oxo-pyrimidin-1-yl]methyl]-4-hydroxy-piperidine-1-carbonyl]-3-phenyl-piperidine-1-carboxylate], 0.125 µM; in that of `Nc1c(Oc2ccc(F)cc2)ncn(CC2(O)CCN(C(=O)[C@@H]3CCN(C(=O)Nc4nc(C(F)(F)F)cs4)C[C@H]3c3ccccc3)CC2)c1=O` [Example 88, (3R,4R)-4-[4-[[5-amino-4-(4-fluorophenoxy)-6-oxo-pyrimidin-1-yl]methyl]-4-hydroxy-piperidine-1-carbonyl]-3-phenyl-N-[4-(trifluoromethyl)thiazol-2-yl]piperidine-1-carboxamide], 0.187 µM. The result for `Nc1c(Oc2ccc(F)cc2)ncn(CC2(O)CCN(C(=O)[C@@H]3CCN(C(=O)NCc4ccccc4)C[C@H]3c3ccccc3)CC2)c1=O` [Example 79, (3R,4R)-4-[4-[[5-amino-4-(4-fluorophenoxy)-6-oxo-pyrimidin-1-yl]methyl]-4-hydroxy-piperidine-1-carbonyl]-N-benzyl-3-phenyl-piperidine-1-carboxamide] reads 0.121 µM; that for `Nc1c(Oc2ccc(Cl)c(F)c2)ncn(CC2(O)CCN(C(=O)[C@@H]3CCNC[C@H]3c3ccccc3)CC2)c1=O` [Example 16], 0.232 µM. For `Nc1c(Oc2ccc(F)cc2)ncn(CC2(O)CCN(C(=O)[C@@H]3CCN(C4(c5ccc(F)cc5)COC4)C[C@H]3c3ccccc3)CC2)c1=O` [Example 110, 5-amino-6-(4-fluorophenoxy)-3-[[1-[(3R,4R)-1-[3-(4-fluorophenyl)oxetan-3-yl]-3-phenyl-piperidine-4carbonyl]-4-hydroxy-4-piperidyl]methyl]pyrimidin-4-one], the Ki stood at 0.182 µM. The result for `Nc1c(Oc2ccc(F)cc2)ncn(CC2(O)CCN(C(=O)[C@@H]3CCN(C(=O)c4ccc5nc[nH]c(=O)c5c4)C[C@H]3c3ccccc3)CC2)c1=O` [Example 57, 6-[(3R,4R)-4-(4-t[5-amino-4-(4-fluorophenoxy)-6-oxopyrimidin-[(6N)-yl]methyl}-4-hydroxypiperidine-1-carbonyl)-3-phenylpiperidine-1-carbonyl]quinazolin-4(3n)-one] reads 0.0051 µM. `COc1cc(Oc2ncn(C[C@@]3(O)CCN(C(=O)[C@@H]4CCN(Cc5ccncn5)C[C@H]4c4ccccc4)CC3(F)F)c(=O)c2N)ccc1F` [Example 220, 5-amino-3-[[(4S)-3,3-difluoro-4-hydroxy-1-[(3R,4R)-3-phenyl-1-(pyrimidin-4-ylmethyl)piperidine-4-carbonyl]-4-piperidyl]methyl]-6-(4-fluoro-3-methoxy-phenoxy)pyrimidin-4-one]: the Ki was found to be 0.0982 µM. Compared with the last molecule, the Ki is about 19-fold higher. Consider `Cc1ccc(-c2cccc(C(=O)N3CC[C@@H](C(=O)N4CCC(O)(Cn5cnc(Oc6ccc(F)cc6)c(N)c5=O)CC4)[C@H](c4ccccc4)C3)c2)cn1` [Example 32], for which the Ki came out at 0.0046 µM. This Ki is about 21-fold lower than that of the molecule before. Regarding `Nc1c(Oc2cccc(C(F)(F)F)c2)ncn(CC2(O)CCN(C(=O)[C@@H]3CCNC[C@H]3c3ccccc3)CC2)c1=O` [Example 18, 5-amino-3-[[4-hydroxy-1-[(3R,4R)-3-phenylpiperidine-4-carbonyl]-4-piperidyl]methyl]-6-[3-(trifluoromethyl)phenoxy]pyrimidin-4-one hydrochloride], the Ki stood at 0.329 µM.

Molecule `COc1cc(Cl)cc(Oc2ncn(CC3(O)CCN(C(=O)[C@@H]4CCNC[C@H]4c4ccccc4)CC3)c(=O)c2N)c1` [Example 15] came in with a Ki of 0.286 µM.

Molecule `Nc1c(Oc2cccc(OC(F)(F)F)c2)ncn(CC2(O)CCN(C(=O)[C@@H]3CCNC[C@H]3c3ccccc3)CC2)c1=O` [Example 19, 5-amino-3-[[4-hydroxy-1-[(3R,4R)-3-phenylpiperidine-4-carbonyl]-4-piperidyl]methyl]-6-[3-(trifluoromethoxy)phenoxy]pyrimidin-4-one hydrochloride] returned a Ki of 0.344 µM. In the case of `Nc1c(Oc2ccc(F)cc2)ncn(CC2(O)CCN(C(=O)[C@@H]3CCNC[C@H]3c3ccccc3)CC2)c1=O` [Example 21, 5-amino-6-(4-fluorophenoxy)-3-[[4-hydroxy-1-[(3R,4R)-3-phenylpiperidine-4-carbonyl]-4-piperidyl]methyl]pyrimidin-4-one] it was 0.103 µM; in that of `Nc1c(Oc2ccccc2)ncn(CC2(O)CCN(C(=O)[C@@H]3CCN(C4(c5ccc(F)cc5)COC4)C[C@H]3c3ccccc3)CC2)c1=O` [Example 115], 0.418 µM. The result for `CC(C)(C)OC(=O)N1CC[C@@H](C(=O)N2CCC(O)(Cn3cnc(Oc4ccc(F)cc4)c(N)c3=O)CC2)[C@H](c2ccccc2)C1` [Example 8, tert-butyl (3R,4R)-4-[4-[[5-amino-4-(4-fluorophenoxy)-6-oxo-pyrimidin-1-yl]methyl]-4-hydroxy-piperidine-1-carbonyl]-3-phenyl-piperidine-1-carboxylate] reads 0.131 µM; that for `CC(C)(C)OC(=O)N1CC[C@@H](C(=O)N2CCC(O)(Cn3cnc(Oc4ccc(Cl)cc4)c(N)c3=O)CC2)[C@H](c2ccccc2)C1` [Example 1, tert-butyl (3R,4R)-4-[4-[[5-amino-4-(4-chlorophenoxy)-6-oxo-pyrimidin-1-yl]methyl]-4-hydroxy-piperidine-1-carbonyl]-3-phenyl-piperidine-1-carboxylate], 0.103 µM. The result for `CC(C)(C)OC(=O)N1CC[C@@H](C(=O)N2CC[C@](O)(Cn3cnc(Oc4ccccc4)c(N)c3=O)C(F)(F)C2)[C@H](c2ccccc2)C1` [Example 9, tert-butyl (3R,4R)-4-[(4S)-4-[(5-amino-6-oxo-4-phenoxy-pyrimidin-1-yl)methyl]-3,3-difluoro-4-hydroxy-piperidine-1-carbonyl]-3-phenyl-piperidine-1-carboxylate] reads 0.0825 µM; that for `Nc1c(Oc2cccnc2)ncn(CC2(O)CCN(C(=O)[C@@H]3CCNC[C@H]3c3ccccc3)CC2)c1=O` [Example 151, 5-amino-3-[[4-hydroxy-1-[(3R,4R)-3-phenylpiperidine-4-carbonyl]-4-piperidyl]methyl]-6-(3-pyridyloxy)pyrimidin-4-one, hydrochloride], 0.214 µM; that for `Cc1nc(-c2cccs2)sc1C(=O)N1CC[C@@H](C(=O)N2CCC(O)(Cn3cnc(Oc4ccc(F)cc4)c(N)c3=O)CC2)[C@H](c2ccccc2)C1` [Example 150, 5-amino-6-(4-fluorophenoxy)-3-[[4-hydroxy-1-[(3R,4R)-1-[4-methyl-2-(2-thienyl)thiazole-5-carbonyl]-3-phenyl-piperidine-4-carbonyl]-4-piperidyl]methyl]pyrimidin-4-one], 0.0219 µM. `CC(C)(O)CN1CC[C@@H](C(=O)N2CCC(O)(Cn3cnc(Oc4ccc(F)cc4)c(N)c3=O)CC2)[C@H](c2ccccc2)C1` [Example 73, 5-amino-6-(4-fluorophenoxy)-3-[[4-hydroxy-1-[(3R,4R)-1-(2-hydroxy-2-methyl-propyl)-3-phenyl-piperidine-4-carbonyl]-4-piperidyl]methyl]pyrimidin-4-one] displayed a Ki of 0.326 µM. Against the preceding molecule, the Ki is about 15-fold higher. As to `COc1cc(Oc2ncn(CC3(O)CCN(C(=O)[C@@H]4CCN(C(=O)OC(C)(C)C)C[C@H]4c4ccccc4)CC3)c(=O)c2N)ccc1F` [Example 4, tert-butyl (3R,4R)-4-[4-[[5-amino-4(4-fluoro-3-methoxy-phenoxy)-6-oxo-pyrimidin-1-yl]methyl]-4-hydroxy-piperidine-1-carbonyl]-3-phenyl-piperidine-1-carboxylate], the affinity, expressed as Ki, was 0.115 µM. The result for `CC(C)C1(N2CC[C@@H](C(=O)N3CCC(O)(Cn4cnc(Oc5ccc(F)cc5)c(N)c4=O)CC3)[C@H](c3ccccc3)C2)COC1` [Example 112, 5-amino-6-(4-fluorophenoxy)-3-[[4-hydroxy-1-[(3R,4R)-1-(3-isopropyloxetan-3-yl)-3-phenyl-piperidine-4-carbonyl]-4-piperidyl]methyl]pyrimidin-4-one] reads 0.203 µM; that for `CC(C)(C)OC(=O)N1CC[C@@H](C(=O)N2CCC(O)(Cn3cnc(Oc4cccc(OC(F)(F)F)c4)c(N)c3=O)CC2)[C@H](c2ccccc2)C1` [Example 6], 0.398 µM.

These data come from US20210355106A1, “NEW AMINO-PYRIMIDONYL-PIPERIDINYL DERIVATIVES, A PROCESS FOR THEIR PREPARATION AND PHARMACEUTICAL COMPOSITIONS CONTAINING THEM” (LES LABORATOIRES SERVIER, priority 2018, published 2021).
